According to US9187524B2, “Broad spectrum antibiotic arylomycin analogs” (The Scripps Research Institute, priority 2010, dated 2015):

How the values were obtained:
S. epidermidis = test: Selection of arylomycin resistant S. epidermidis; format: cell-based; details: growth in the presence of 2 μg/ml (8×MIC)
[1] = tested on: S. epidermidis PAS9002 (SPase S31P); test: microbe, parasite or virus in culture; format: cell-based

CCCCCCCCCCCCCCCC(=O)N(C)[C@H](CO)C(=O)N[C@H](C)C(=O)NCC(=O)N(C)[C@@H]1C(=O)N[C@@H](C)C(=O)N[C@H](C(=O)O)Cc2ccc(O)c(c2)-c2cc1ccc2O [Arylomycin C16]
frequency of resistant mutants (S. epidermidis): 4 per 109 viable cells
MIC ([1]; Staphylococcus epidermidis, read-out: MIC, S. epidermidis PAS9002): > 128 µg/mL
fold elevated MIC compared to the wild type strain, Ser to Pro at position 31 ([1]; remainder of selected S. epidermidis mutants): greater than 256 fold
